The values below come from PMC5838563, “Compounds producing an effective combinatorial regimen for disruption of HIV‐1 latency” (EMBO Molecular Medicine, 2017).

Experiment [1] relates to replication‐competent HIV‐1 provirus in CD4^+ T cells from HIV‐1‐infected patients. In words: Quantitative viral outgrowth assay (qVOA). The experiment is classed as cell-based. How it is done:
However, 1 nM PEP005 in combination with 1 μM PH02 produced a significant response that was double that produced by 1 μM PH02 on its own (Fig 10A). We confirmed this effect using a quantitative viral outgrowth assay (qVOA) with pools of CD4^+ T cells isolated from HIV‐1‐infected patient samples (Fig EV5, Appendix Table S5). […] We conclude that this combination of treatments may represent a promising candidate therapy to target persistent latent viral infection.
Figure EV5 Assay for reactivation of HIV‐1 from latently infected cells using a quantitative viral outgrowth assay Resting CD4^+ T cells from patient samples were serially diluted in 6‐ or 24‐well plates in duplicate (top) and treated as indicated (left). After 24 h, MOLT4/CCR5 cells were added to the wells, and the cultures incubated a further 14 days. HIV‐1 RNA was detected in filtered culture supernatants using RT–qPCR, and wells producing the specific PCR product are indicated in green. […]
For quantitative viral outgrowth assays (qVOA), serial dilutions of CD4^+ T lymphocytes from pooled HIV‐infected patients were plated in 6‐ or 24‐well plates (1 × 10^6 cells or < 1 × 10^6 cells, respectively). […] Viral RNA was isolated from the culture supernatants and analyzed as described above. […]

For experiment [2], the system named is SP1, NF‐κB p65, IκBα, total H3K9‐me3 and H3K9ac in Jurkat^Tat reporter cells. Briefly: Western blot of SP1, NF‐κB p65, IκBα and global H3K9 modifications. In kind it is cell-based. How it is done: Figure 6 Effect of PH02 on histone modification at HIV‐1 LTR and global histone modification • Chromatin immunoprecipitation assays were performed using Jurkat^Tat LTR‐DsRed, clone 11. The cells were treated for 24 h with PH02 and/or PEP005, and ChIP was performed using antibodies against histone H3K9‐me3 (left panel) and histone H3K9‐ac (right panel). The results are presented relative to ChIP with antihistone H3 antibodies. The results are determined from three biological replicates (n = 3). Statistical significance, as determined by ratio paired t‐test, is indicated as follows: ***P < 0.0005; ****P < 0.00005. The exact P‐values are indicated in Appendix Table S1. • Western blot analysis was performed using Jurkat^Tat LTR‐DsRed, clone 11, to detect the expression of SP1, NF‐κB p65, IκBα, total H3K9‐me3, and H3K9ac. The cells were treated for 24 h with PH02 and/or PEP005. Source data are available online for this figure.
Figure EV3 Effect of PH compounds on SP1, NF‐κB p65, and IκBα expression Jurkat^Tat LTR‐Luciferase cells were treated with a single concentration (3 μM) of each PH compound for the indicated time points. Whole‐cell protein extract was separated by SDS–PAGE, transferred to nitrocellulose membrane, and blotted with antibodies against SP1, NF‐κB p65, and IκBα. GAPDH was used as the loading control. Source data are available online for this figure.
5 × 10^6 luciferase reporter cells/Jurkat^Tat LTR‐DsRed, clone 11, were treated with the indicated concentration of the compounds. After treatment, the cells were lysed in RIPA buffer (50 mM Tris–HCl, pH 8.0, 150 mM NaCl, 1% NP‐40, 0.5% sodium deoxycholate, 0.1% SDS), supplemented with 1× protease inhibitor cocktail and 1 mM DTT, to collect the whole‐cell protein extract, which was further quantified using Bradford assay. A 30 μg equivalent of the protein extract was mixed with the 5× SDS–PAGE sample buffer and boiled for 5 min, and then, it was separated using 12% SDS–PAGE gel and transferred to a nitrocellulose membrane. […]

The mark [3] stands for this setting: Jurkat^Tat LTR‐DsRed clone 11, 24 h.

Structures are written as SMILES.

For `C/C=C(/C)C(=O)O[C@H]1C(C)=C[C@]23C(=O)[C@@H](C=C(CO)[C@@H](O)[C@]12O)[C@H]1[C@@H](C[C@H]3C)C1(C)C` [PEP005, ingenol‐3‐angelate, reference compound], the reactivation of virus entry in experiment [1] (1 nM PEP005 alone, 24 h) was “did not produce reactivation of virus”. The IκBα level entry in experiment [2] (Jurkat^Tat LTR‐DsRed clone 11, 24‐h treatment, alone or with PH02) was “causes loss of IκBα”.
On to `CC(=O)Oc1ccccc1N(C=C1Sc2ccccc2C1=O)C(C)=O` [PH02, 2‐{acetyl[(3‐oxo‐1‐benzothien‐2(3H)‐ylidene)methyl]amino}phenyl acetate], for which the virus replication result in experiment [1] (1 μM PH02 + 1 nM PEP005, 24 h) is on record as “produced significant virus replication”. In experiment [2] (setting [3]), the “expression of NF‐κB p65 and SP1” value is listed as “mostly unaffected”; the “global acetylation or methylation of lysine 9 on H3” value is reported as “do not observe a significant effect”.
